Test results: patent US20240270821A1, “GIP/GLP1/GCG TRI-RECEPTOR AGONISTS AND USES THEREOF” (priority 2023, published 2024)
Read-outs that look alike come from different tables or passages of the source. Starred links: 1 amine or outer side, 2 acyl side, 3 side chain; linkers in the order of their positions; H or OH if unused. Non-standard residues stand in square brackets, D forms with d. Residues, ends and D or L forms follow the SMILES beside them. Groups on a side chain read outwards from the residue. No end group written: not given here. *: point of attachment. C20 diacid = O=C(O)CCCCCCCCCCCCCCCCCCC(=O)*; C18 diacid = O=C(O)CCCCCCCCCCCCCCCCC(=O)*; αMePhe(2-F) = C[C@](N)(Cc1ccccc1F)C(=O)O; γGlu = O=C(O)[C@H](CCC(=O)[*:2])N[*:1]; αMe4Pal = C[C@](N)(Cc1ccncc1)C(=O)O; αMeY = C[C@](N)(Cc1ccc(O)cc1)C(=O)O; αMeF = C[C@](N)(Cc1ccccc1)C(=O)O; 4Pal = N[C@@H](Cc1ccncc1)C(=O)O; αMeL = CC(C)C[C@](C)(N)C(=O)O; αMeS = C[C@](N)(CO)C(=O)O; Iva = CC[C@](C)(N)C(=O)O; Orn = NCCC[C@H](N)C(=O)O; AEEA = NCCOCCOCC(=O)O; Aib = CC(C)(N)C(=O)O

Experiments:
Format in all cases: cell-based
hGIPR [1] = target: T1, hGIPR (Homo sapiens, UniProt P48546); experiment: Functional cAMP activation in the presence of 0.1% casein (no HSA); conditions: read-out: Relative cAMP EC50, hGIPR;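 note: intracellular cAMP rise after 30 min at 37 °C read by HTRF against a standard curve, scaled between buffer alone (0%) and top control ligand concentration (100%), four-parameter fit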
T1 sequence (P48546 22-466): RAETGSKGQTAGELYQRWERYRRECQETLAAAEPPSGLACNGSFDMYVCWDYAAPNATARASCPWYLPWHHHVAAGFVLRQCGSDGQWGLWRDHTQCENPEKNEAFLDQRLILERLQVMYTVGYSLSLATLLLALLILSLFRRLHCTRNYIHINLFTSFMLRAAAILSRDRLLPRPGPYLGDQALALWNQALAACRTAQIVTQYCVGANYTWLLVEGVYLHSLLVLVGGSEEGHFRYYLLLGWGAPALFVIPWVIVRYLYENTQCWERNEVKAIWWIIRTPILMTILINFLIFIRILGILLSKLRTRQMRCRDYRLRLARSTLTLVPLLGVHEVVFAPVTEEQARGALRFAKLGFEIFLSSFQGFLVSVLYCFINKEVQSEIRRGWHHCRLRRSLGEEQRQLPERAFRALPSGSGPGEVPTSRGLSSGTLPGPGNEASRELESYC

hGLP-1R [2] = target: T2, hGLP-1R (Homo sapiens, UniProt P43220); experiment: as above; conditions: read-out: Relative cAMP EC50, hGLP-1R;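 note: intracellular cAMP rise after 30 min at 37 °C read by HTRF, normalized between buffer only (0%) and maximal control ligand (100%), four-parameter variable-slope fit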
hGIPR [3] = target: T1, hGIPR; experiment: Functional cAMP activity in the presence of 1% HSA; conditions: read-out: cAMP Rel EC50, hGIPR
hGcgR = hGcgR (Homo sapiens, UniProt P47871); experiment: Functional cAMP activation in the presence of 0.1% casein (no HSA); conditions: read-out: Relative cAMP EC50, hGcgR;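 note: intracellular cAMP rise after 30 min at 37 °C, read by HTRF against a cAMP standard curve, scaled from buffer only (0%) to maximal control ligand response (100%)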
hGLP-1R [4] = target: T2, hGLP-1R; experiment: Functional cAMP activity in the presence of 1% HSA; conditions: read-out: cAMP Rel EC50, hGLP-1R
human GcgR = human GcgR (Homo sapiens, UniProt P47871); experiment: Functional cAMP activity in the presence of 1% HSA; conditions: read-out: cAMP Rel EC50, hGcgR
[5] = in the presence of 0.1% casein (no HSA), geometric mean

T2 sequence (P43220 24-463): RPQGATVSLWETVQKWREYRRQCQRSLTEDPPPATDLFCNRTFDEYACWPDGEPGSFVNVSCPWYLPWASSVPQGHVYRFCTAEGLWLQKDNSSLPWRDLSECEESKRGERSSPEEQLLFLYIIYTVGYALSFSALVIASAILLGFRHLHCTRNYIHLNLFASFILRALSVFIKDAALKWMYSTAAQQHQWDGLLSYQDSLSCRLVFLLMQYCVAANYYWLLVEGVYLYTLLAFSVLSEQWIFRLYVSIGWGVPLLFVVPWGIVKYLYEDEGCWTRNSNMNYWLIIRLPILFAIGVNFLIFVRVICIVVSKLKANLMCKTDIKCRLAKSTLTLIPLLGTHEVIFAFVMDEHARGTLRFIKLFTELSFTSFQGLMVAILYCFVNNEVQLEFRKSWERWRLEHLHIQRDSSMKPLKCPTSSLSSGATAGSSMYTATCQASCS
Sequence of hGcgR (P47871 26-477): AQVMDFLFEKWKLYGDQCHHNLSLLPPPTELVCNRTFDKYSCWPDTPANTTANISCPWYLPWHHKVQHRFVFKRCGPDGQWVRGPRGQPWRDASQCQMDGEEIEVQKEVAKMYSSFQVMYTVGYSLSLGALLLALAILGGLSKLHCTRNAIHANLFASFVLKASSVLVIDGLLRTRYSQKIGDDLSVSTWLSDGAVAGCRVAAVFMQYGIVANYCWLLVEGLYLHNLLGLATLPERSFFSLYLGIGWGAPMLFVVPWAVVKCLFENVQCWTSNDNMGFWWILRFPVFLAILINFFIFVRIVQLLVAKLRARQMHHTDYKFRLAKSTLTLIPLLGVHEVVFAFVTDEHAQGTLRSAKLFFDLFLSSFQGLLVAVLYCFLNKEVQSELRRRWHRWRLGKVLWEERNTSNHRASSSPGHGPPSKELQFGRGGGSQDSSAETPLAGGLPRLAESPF
Sequence of human GcgR (P47871 26-477): as above

| Compound | EC50 (hGIPR [1]; [5]) | EC50 (hGLP-1R [2]; [5]) | EC50 (hGIPR [3]) | EC50 (hGcgR; [5]) | EC50 (hGLP-1R [4]) | EC50 (human GcgR) | EC50 (hGIPR [1]) | EC50 (hGLP-1R [2]) | EC50 (hGcgR) |
| --- | --- | --- | --- | --- | --- | --- | --- | --- | --- |
| CC[C@H](C)[C@H](NC(=O)[C@H](Cc1ccccc1)NC(=O)[C@H](C)NC(=O)C(C)(C)NC(=O)[C@H](CCC(N)=O)NC(=O)[C@H](C)NC(=O)[C@H](CCCCNC(=O)COCCOCCNC(=O)COCCOCCNC(=O)CC[C@H](NC(=O)CCCCCCCCCCCCCCCCCCC(=O)O)C(=O)O)NC(=O)[C@H](CCCCN)NC(=O)[C@H](CC(=O)O)NC(=O)[C@H](CC(C)C)NC(=O)[C@H](CC(C)C)NC(=O)[C@@H](NC(=O)[C@H](CO)NC(=O)[C@H](Cc1ccc(O)cc1)NC(=O)[C@H](CC(=O)O)NC(=O)[C@H](CO)NC(=O)[C@@H](NC(=O)[C@](C)(Cc1ccccc1F)NC(=O)[C@@H](NC(=O)CNC(=O)[C@H](CCC(N)=O)NC(=O)C(C)(C)NC(=O)[C@@H](N)Cc1ccc(O)cc1)[C@@H](C)O)[C@@H](C)O)[C@@H](C)CC)C(=O)N[C@@H](CCC(=O)O)C(=O)N[C@@H](Cc1ccc(O)cc1)C(=O)N[C@@H](CC(C)C)C(=O)N[C@@H](CC(C)C)C(=O)N[C@@H](CCC(=O)O)C(=O)NCC(=O)NCC(=O)N1CCC[C@H]1C(=O)N[C@@H](CO)C(=O)N[C@@H](CO)C(=O)NCC(=O)N[C@@H](C)C(=O)N1CCC[C@H]1C(=O)N1CCC[C@H]1C(=O)N1CCC[C@H]1C(=O)N[C@@H](CCC(=O)O)C(N)=O [Example 386] (H-Y[Aib]QGT[αMePhe(2-F)]TSDYSILLDKK([AEEA-AEEA-γGlu-C20 diacid])AQ[Aib]AFIEYLLEGGPSSGAPPPE-NH2) | 0.0156 nM | 0.278 nM | 5.62 nM | 1.7 nM | 98.6 nM | 734 nM | – | – | – |
| Y[Aib]QGT[αMeF]TSD[4Pal][αMeS]I[αMeL]LD[Orn]K([γGlu-γGlu-C18 diacid])AQ[αMe4Pal]EFI[dE][αMeY]LIEGGPSSGAPPPSGGGE-NH2 [Example 1174] | 0.00896 nM | 0.454 nM | 0.707 nM | 2.58 nM | 60.2 nM | 347 nM | – | – | – |
| H-Y[Aib]QGTFTSD[4Pal]SQ[αMeL]LDKK([γGlu-γGlu-C18 diacid])AQ[αMe4Pal]AFIE[αMe4Pal]LIEGGPSSGAPPPSGSEE-NH2 [Example 957] | 0.213 nM | 5.01 nM | 25 nM | 4.18 nM | 747 nM | 947 nM | – | – | – |
| H-Y[Aib]QGT[αMePhe(2-F)]TSD[4Pal]SILLDKK([γGlu-γGlu-C18 diacid])AQ[Aib]AFIEWLEEGGPSSGAPPPSGTE-NH2 [Example 549] | – | – | 3.67 nM | – | 76.2 nM | 655 nM | 0.0255 nM | 0.395 nM | 3.41 nM |
| H-Y[Aib]QGT[αMePhe(2-F)]TSD[4Pal][αMeS]I[αMeL]LD[Orn]K([AEEA-γGlu-C18 diacid])AA[Aib]EFI[dE][αMeY]LIEGGPSSGAPPPSG[dE]-NH2 [Example 721] | – | – | 1.19 nM | – | 27.1 nM | 183 nM | 0.00774 nM | 0.233 nM | 1.78 nM |
| H-Y[Aib]QGT[αMePhe(2-F)]TSD[4Pal][αMeS]I[αMeL]LD[Orn]K([γGlu-γGlu-C18 diacid])AQ[Aib][Orn]FI[dE][αMeY]LSEGGPSSGEPPPSGTGE-NH2 [Example 518] | – | – | 7.1 nM | – | 51 nM | 265 nM | 0.129 nM | 0.867 nM | 3.93 nM |
| H-Y[Aib]QGT[αMePhe(2-F)]TSD[4Pal][αMeS]I[αMeL]LD[Orn]K([γGlu-γGlu-C18 diacid])AQ[Aib][Orn]FI[dE][αMeY]LQEGGPSSGEPPPSGTEE-NH2 [Example 572] | – | – | 3.13 nM | – | 30.4 nM | 330 nM | 0.0465 nM | 0.366 nM | 3.48 nM |
| H-Y[Aib]QGT[αMePhe(2-F)]TSD[4Pal][αMeS]I[αMeL]LD[Orn]K([γGlu-γGlu-C18 diacid])AQ[Aib][Orn]FI[dE][αMeY]LSEGGPSSGEPPPSGTEEE-NH2 [Example 562] | – | – | 10.2 nM | – | 89.5 nM | 427 nM | 0.284 nM | 1.67 nM | 6 nM |
| CC[C@H](C)[C@H](NC(=O)[C@H](Cc1ccccc1)NC(=O)[C@H](C)NC(=O)C(C)(C)NC(=O)[C@H](CCC(N)=O)NC(=O)[C@H](C)NC(=O)[C@H](CCCCNC(=O)COCCOCCNC(=O)CC[C@H](NC(=O)CCCCCCCCCCCCCCCCC(=O)O)C(=O)O)NC(=O)[C@H](CCCCN)NC(=O)[C@H](CC(=O)O)NC(=O)[C@H](CC(C)C)NC(=O)[C@](C)(CC(C)C)NC(=O)[C@H](CCCN)NC(=O)[C@H](CO)NC(=O)[C@H](Cc1ccccc1)NC(=O)[C@H](CC(=O)O)NC(=O)[C@H](CO)NC(=O)[C@@H](NC(=O)[C@H](Cc1ccccc1)NC(=O)[C@@H](NC(=O)CNC(=O)[C@H](CCC(N)=O)NC(=O)C(C)(C)NC(=O)[C@@H](N)Cc1ccc(O)cc1)[C@@H](C)O)[C@@H](C)O)C(=O)N[C@@H](CCC(=O)O)C(=O)N[C@@H](Cc1ccc(O)cc1)C(=O)N[C@@H](CC(C)C)C(=O)N[C@@H](CC(C)C)C(=O)N[C@@H](CCC(=O)O)C(=O)N[C@H](C)C(=O)NCC(=O)N1CCC[C@H]1C(=O)N[C@@H](CO)C(=O)N[C@@H](CO)C(=O)NCC(=O)N[C@@H](C)C(=O)N1CCC[C@H]1C(=O)N1CCC[C@H]1C(=O)N1CCC[C@H]1C(=O)N[C@@H](CCC(=O)O)C(=O)NCC(=O)N[C@@H](CCC(=O)O)C(N)=O [Example 206] | 0.224 nM | 2.77 nM | 38.8 nM | 2.2 nM | 372 nM | 545 nM | – | – | – |
| Y[Aib]QGT[αMePhe(2-F)]TSD[4Pal]SI[αMeL]LD[Orn]K([AEEA-γGlu-C18 diacid])AQ[αMe4Pal][Orn]FI[dE][αMeY]LIEGGPSSGAPPPEGGGE-NH2 [Example 758] | – | – | 1.59 nM | – | 31.3 nM | 388 nM | 0.0212 nM | 0.195 nM | 3.99 nM |
| Y[Aib]QGTFTSD[4Pal]SQ[αMeL]LDKK([dE-γGlu-C18 diacid])AQ[αMe4Pal]AFIEYLIAGGPSSGAPPPSGEEE-NH2 [Example 1088] | 0.182 nM | 2.99 nM | 15.6 nM | 14.8 nM | 367 nM | 1710 nM | – | – | – |
| Y[Aib]QGTFTSD[4Pal][αMeS]Q[αMeL]LD[Orn]K([dE-γGlu-C18 diacid])AQ[Iva]QFIQ[αMeY]LLE[Aib]GPSSGAPPPSGGGE-NH2 [Example 1139] | 0.0431 nM | 1.85 nM | 2.87 nM | 5.29 nM | 155 nM | 269 nM | – | – | – |
| Y[Aib]QGTFTSD[4Pal]SQ[αMeL]LD[Orn]K([dE-γGlu-C18 diacid])AQ[αMe4Pal]QFIE[αMeY]LIA[Aib]GPSSGEPPPSGSEE-NH2 [Example 1106] | 0.0312 nM | 0.87 nM | 4.23 nM | 7.71 nM | 119 nM | 1030 nM | – | – | – |
| Y[Aib]QGTFTSD[4Pal]SK[αMeL]LDKK([AEEA-γGlu-C18 diacid])AQ[Aib]AFIEYLIE[Aib]GESSGEPPPSGE-NH2 [Example 281] | 0.154 nM | 1.6 nM | 25.8 nM | 13.7 nM | 295 nM | 1370 nM | – | – | – |
| H-Y[Aib]QGTFTSD[4Pal]SQ[αMeL]LDKK([AEEA-γGlu-C18 diacid])AQ[Aib]AFIEYLLE[dA]GPSS[Aib]APPPSGT-NH2 [Example 824] | 0.123 nM | 2.43 nM | 28.9 nM | 7.92 nM | 343 nM | 1110 nM | – | – | – |
| Y[Aib]QGTFTSD[4Pal]S[Orn][αMeL]LD[Orn]K([γGlu-γGlu-C18 diacid])AQ[αMe4Pal]QFIE[αMeY]LIEGGPSSGAPPPSGSEE-NH2 [Example 972] | 0.34 nM | 2.05 nM | 30.4 nM | 4.19 nM | 327 nM | 660 nM | – | – | – |
| H-Y[Aib]QGT[αMePhe(2-F)]TSD[4Pal][αMeS]I[αMeL]LD[Orn]K([AEEA-γGlu-C18 diacid])AQ[Aib][Orn]FIEYLIEAGPSSGEPPPEEG-NH2 [Example 484] | – | – | 1.59 nM | – | 16 nM | 204 nM | 0.0152 nM | 0.201 nM | 3.99 nM |
| H-Y[Aib]QGTFTSD[4Pal]SQ[αMeL]LDKK([γGlu-γGlu-C18 diacid])AQ[αMe4Pal]AFIEYLIE[Aib]GPSSGAPPPSGSGE-NH2 [Example 891] | 0.155 nM | 3.25 nM | 16 nM | 3.14 nM | 330 nM | 581 nM | – | – | – |
| H-Y[Aib]QGTFTSDFS[Orn][αMeL]LDKK([AEEA-γGlu-C20 diacid])AQ[Aib]AFIEWLLEGGPSSGAPPPEGE-NH2 [Example 101] | 0.436 nM | 4.3 nM | 133 nM | 10 nM | 1090 nM | 2810 nM | – | – | – |
